Results from ChEMBL document CHEMBL4406842, “Synthesis and in vitro biological evaluation of novel derivatives of Flexicaulin A condensation with amino acid trifluoroacetate” (Eur J Med Chem, 2019).
Activity calls are given as the source filed them. The rule behind the calls is not given here.

How the values were obtained:
[1] = Solubility of compound in water; assay type: physicochemical; settings: buffer
MGC-803 = assay: Antiproliferative activity against human MGC803 cells assessed as reduction in cell viability incubated for 72 hrs by SRB assay; assay type: functional, cell-based; settings: MGC-803, 72 h
TE-1 [2] = assay: Induction of apoptosis in human TE1 cells assessed as decrease in Bcl2 expression at 0.75 to 3 umol/L incubated for 48 hrs by Western blot analysis; assay type: functional, cell-based
A549 = assay: Antiproliferative activity against human A549 cells assessed as reduction in cell viability incubated for 72 hrs by SRB assay; assay type: functional, cell-based; settings: A549, 72 h
TE-1 [3] = assay: Induction of ROS production in human TE1 cells at 3 umol/L incubated for 48 hrs by DCFH-DA staining based flow cytometry (reference value: 2.4 %); assay type: functional
TE-1 [4] = assay: Induction of ROS production in human TE1 cells at 1.5 umol/L incubated for 48 hrs by DCFH-DA staining based flow cytometry (reference value: 2.4 %); assay type: functional
MCF7 = assay: Antiproliferative activity against human MCF7 cells assessed as reduction in cell viability incubated for 72 hrs by SRB assay; assay type: functional, cell-based; settings: MCF7, 72 h
TE-1 [5] = assay: Induction of apoptosis in human TE1 cells assessed as late apoptotic cells at 1.5 umol/L incubated for 48 hrs by annexin V-FITC and propidium iodide staining based flow cytometry (reference value: 2.8 %); assay type: functional
Homo sapiens [6] = species on record: Homo sapiens; assay: Activation of SAPK/JNK signalling pathway in human TE1 cells assessed as increase in ASK1 phosphorylation at 1.5 and 3 umol/L incubated for 48 hrs by Western blot analysis; assay type: cell-based
TE-1 [7] = assay: Induction of apoptosis in human TE1 cells assessed as early apoptotic cells at 3 umol/L incubated for 48 hrs by annexin V-FITC and propidium iodide staining based flow cytometry (reference value: 0.9 %); assay type: functional
TE-1 [8] = assay: Induction of apoptosis in human TE1 cells assessed as increase in Bax-Bcl2 ratio at 0.75 to 3 umol/L incubated for 48 hrs by Western blot analysis; assay type: functional, cell-based
TE-1 [9] = assay: Induction of apoptosis in human TE1 cells assessed as increase in cleaved PARP level at 0.75 to 3 umol/L incubated for 48 hrs by Western blot analysis; assay type: functional, cell-based
TE-1 [10] = assay: Antiproliferative activity against human TE1 cells assessed as reduction in cell viability incubated for 72 hrs by SRB assay; assay type: functional, cell-based
TE-1 [11] = assay: Induction of apoptosis in human TE1 cells assessed as late apoptotic cells at 0.75 umol/L incubated for 48 hrs by annexin V-FITC and propidium iodide staining based flow cytometry (reference value: 2.8 %); assay type: functional
TE-1 [12] = assay: Induction of apoptosis in human TE1 cells assessed as increase in cleaved caspase-9 level at 0.75 to 3 umol/L incubated for 48 hrs by Western blot analysis; assay type: functional, cell-based
TE-1 [13] = assay: Induction of apoptosis in human TE1 cells assessed as early apoptotic cells at 1.5 umol/L incubated for 48 hrs by annexin V-FITC and propidium iodide staining based flow cytometry (reference value: 0.9 %); assay type: functional
Homo sapiens [14] = species on record: Homo sapiens; assay: Activation of SAPK/JNK signalling pathway in human TE1 cells assessed as increase in JNK phosphorylation at 0.75 to 3 umol/L incubated for 48 hrs by Western blot analysis; assay type: cell-based
TE-1 [15] = assay: Inhibition of colony formation in human TE1 cells at 1 umol/l incubated for 24 hrs supplemented with fresh medium and measured after 7 days by crystal violet staining based assay relative to control; assay type: functional
TE-1 [16] = assay: Induction of apoptosis in human TE1 cells assessed as early apoptotic cells at 0.75 umol/L incubated for 48 hrs by annexin V-FITC and propidium iodide staining based flow cytometry (reference value: 0.9 %); assay type: functional
TE-1 [17] = assay: Induction of apoptosis in human TE1 cells assessed as increase in Bad protein level at 0.75 to 3 umol/L incubated for 48 hrs by Western blot analysis; assay type: functional, cell-based
TE-1 [18] = assay: Induction of apoptosis in human TE1 cells assessed as increase in Bak protein level at 0.75 to 3 umol/L incubated for 48 hrs by Western blot analysis; assay type: functional, cell-based
TE-1 [19] = assay: Induction of apoptosis in human TE1 cells assessed as late apoptotic cells at 3 umol/L incubated for 48 hrs by annexin V-FITC and propidium iodide staining based flow cytometry (reference value: 2.8 %); assay type: functional
TE-1 [20] = assay: Inhibition of colony formation in human TE1 cells incubated for 24 hrs supplemented with fresh medium and measured after 7 days by crystal violet staining based assay; assay type: functional, cell-based
TE-1 [21] = assay: Induction of apoptosis in human TE1 cells assessed as increase in cleaved caspase-3 level at 0.75 to 3 umol/L incubated for 48 hrs by Western blot analysis; assay type: functional, cell-based
GES1 = assay: Cytotoxicity against human GES-1 cells assessed as reduction in cell viability by SRB assay; assay type: cell-based
Homo sapiens [22] = species on record: Homo sapiens; assay: Activation of SAPK/JNK signalling pathway in human TE1 cells assessed as increase in MKK4 phosphorylation at 0.75 to 3 umol/L incubated for 48 hrs by Western blot analysis; assay type: cell-based
TE-1 [23] = assay: Induction of ROS production in human TE1 cells at 0.75 umol/L incubated for 48 hrs by DCFH-DA staining based flow cytometry (reference value: 2.4 %); assay type: functional
TE-1 [24] = assay: Induction of apoptosis in human TE1 cells assessed as increase in Bax expression at 0.75 to 3 umol/L incubated for 48 hrs by Western blot analysis; assay type: functional, cell-based
TE-1 [25] = assay: Induction of apoptosis in human TE1 cells assessed as increase in NOXA protein level at 0.75 to 3 umol/L incubated for 48 hrs by Western blot analysis; assay type: functional, cell-based

C=C1C(=O)[C@]23[C@H](OC(=O)[C@H](Cc4ccccc4)NC)[C@H]1C[C@H](O)[C@H]2[C@]1(COC(C)=O)CCCC(C)(C)[C@H]1C[C@H]3OC.O=C(O)C(F)(F)F
solubility [1]: Soluble | IC50 (MGC-803): 1500 nM | Activity (TE-1 [2]): Active | IC50 (A549): 1200 nM | Activity (TE-1 [3]): 73.1% | Activity (TE-1 [4]): 36.4% | IC50 (MCF7): 890 nM | Activity (TE-1 [5]): 12% | Activity (Homo sapiens [6]): Active | Activity (TE-1 [7]): 8.7% | Activity (TE-1 [8]): Active | Activity (TE-1 [9]): Active | inhibition (TE-1 [10]): Dose-dependent effect | IC50 (TE-1 [10]; TE-1, 72 h): 750 nM | Activity (TE-1 [11]): 5.1% | Activity (TE-1 [12]): Active | Activity (TE-1 [13]): 5% | Activity (Homo sapiens [14]): Active | inhibition at 1 µM (TE-1 [15]): 100% | Activity (TE-1 [16]): 2.8% | Activity (TE-1 [17]): Active | Activity (TE-1 [18]): Active | Activity (TE-1 [19]): 30.7% | inhibition (TE-1 [20]): Dose-dependent effect | Activity (TE-1 [21]): Active | Activity (GES1): Tde and Dose-dependent effect | Activity (Homo sapiens [22]): Active | Activity (TE-1 [23]): 10.4% | Activity (TE-1 [24]): Active | Activity (TE-1 [25]): Active
